Source: patent publication US11465987B2, “Compounds for treatment of cancer” (ONCTERNAL THERAPEUTICS, INC., priority 2012, dated 2022)
Where two headings read alike, the source gives them in different places.

Assays:
[1] = tested on: DU 145 human prostate cancer cell line; experiment: Cytotoxicity (SRB) assay, DU 145; assay type: cell-based; conditions: Homo sapiens, DU-145, SRB assay, prostate cancer DU 145; read-out: IC50 DU 145
Excerpt: (§1) Cells were stained with SRB solution.

[2] = tested on: PPC-1 human prostate cancer cell line; experiment: Cytotoxicity (SRB) assay, PPC-1; assay type: cell-based; conditions: Homo sapiens
Excerpt: as §1

[3] = tested on: PC-3 human prostate cancer cell line; experiment: cells; conditions: Homo sapiens
Excerpt: as §1

[4] = tested on: LNCaP human prostate cancer cell line; experiment: Cytotoxicity (SRB) assay, LNCaP; assay type: cell-based; conditions: Homo sapiens, LNCaP
Excerpt: as §1

[5] = tested on: melanoma and prostate cancer cell lines; experiment: Antiproliferative activity summarised over the cell line panel (range or average); assay type: cell-based
[6] = tested on: B16-F1 mouse melanoma cell line; experiment: Cytotoxicity (SRB) assay, B16-F1; assay type: cell-based; conditions: Mus musculus
[7] = tested on: A375 human melanoma cell line; experiment: Cytotoxicity (SRB) assay, A375; assay type: cell-based; conditions: Homo sapiens
[8] = tested on: WM-164 human melanoma cell line; experiment: Cytotoxicity (SRB) assay, WM-164; assay type: cell-based; conditions: Homo sapiens
[9] = PPC-1, SRB assay, prostate cancer PPC-1, read-out: IC50 PPC-1
[10] = read-out: IC50 PC-3, SRB assay, prostate cancer PC-3
[11] = SRB assay, prostate cancer LNCaP, read-out: IC50 LNCaP
[12] = B16-F1, SRB assay, mouse melanoma B16-F1, read-out: IC50 B16-F1
[13] = A-375, SRB assay, human melanoma A375, read-out: IC50 A375
[14] = WM164, Table 12, read-out: IC50 ± SEM, WM164 (converted)
[15] = read-out: IC50 ± SEM, PC-3, Table 12
[16] = B16-F1, Table 12, read-out: IC50 ± SEM, B16-F1 (converted)
[17] = A-375, Table 12, read-out: IC50 ± SEM, A375 (converted)
[18] = read-out: IC50 (range over tested cell lines)

SMILES | IC50 [8, 14] [µM] | IC50 [3, 15] [µM] | IC50 [6, 16] [µM] | IC50 [7, 17] [µM] | IC50 [5, 18] [µM] | further results
COc1cc(C(=O)c2cccc(-c3ccccc3)n2)cc(OC)c1OC [1c, (6-Phenylpyridin-2-yl)(3,4,5-trimethoxyphenyl)methanone] | – | – | – | – | – | IC50 [1]: 0.033 ± 0.003 µM; IC50 [2, 9]: 0.025 ± 0.001 µM; IC50 [3, 10]: 0.032 ± 0.002 µM; IC50 [4, 11]: 0.027 ± 0.002 µM; IC50 ([5]; range over prostate cancer cell lines, read-out: IC50 range against prostate cancer cells): 0.012 to 0.035 µM; IC50 [6, 12]: 0.039 ± 0.012 µM; IC50 [7, 13]: 0.03 ± 0.014 µM
COc1cc(C(=O)c2csc(-c3ccc(N(C)C)cc3)n2)cc(OC)c1OC [2o, (2-(4-(Dimethylamino)phenyl)thiazol-4-yl)(3,4,5-trimethoxyphenyl)methanone] | – | – | – | – | – | IC50 [1]: 0.121 µM; IC50 [2, 9]: 0.073 µM; IC50 [3, 10]: 0.073 µM; IC50 [4, 11]: 0.065 µM; IC50 [6, 12]: 0.042 µM; IC50 [7, 13]: 0.038 µM
COc1cc(/C=C\c2csc(-c3ccccc3)n2)cc(OC)c1OC [3a, (Z)-2-Phenyl-4-(3,4,5-trimethoxystyryl)thiazole] | – | – | – | – | – | IC50 ([8]; WM164, read-out: IC50 WM164): 10.6 ± 5.8 µM; IC50 ([3]; read-out: IC50 PC-3): > 10 µM; antiproliferative activity in words ([5]; Tables 1-3): lost activity
COc1cc(Sc2cccc(-c3ccccc3)c2)cc(OC)c1OC [4a, Biphenyl-3-yl(3,4,5-trimethoxyphenyl)sulfane] | – | – | – | – | – | IC50 [3, 10]: > 10 µM; IC50 [4, 11]: 2.3 ± 0.2 µM; IC50 [7, 13]: 1.6 ± 0.4 µM
COc1cc(C(=O)c2c[nH]c(-c3ccc(F)cc3)n2)cc(OC)c1OC [12ba, (2-(4-fluorophenyl)-1H-imidazol-4-yl)(3,4,5-trimethoxyphenyl)methanone] | 0.073 ± 0.008 | 0.169 ± 0.012 | 0.32 ± 0.041 | 0.205 ± 0.019 | – | –
COc1ccc(-c2nc(C(=O)c3cc(OC)c(OC)c(OC)c3)c[nH]2)cc1 [12ca, (2-(4-methoxyphenyl)-1H-imidazol-4-yl)(3,4,5-trimethoxyphenyl)methanone] | 0.031 | 0.045 | 0.108 | 0.03 | 0.0079 to 0.11 | IC50 ([4]; Table 12, read-out: IC50 ± SEM, LNCaP (converted)): 0.031 µM
Cc1ccc(-c2nc(C(=O)c3ccc(F)cc3)c[nH]2)cc1 [12db, (4-fluorophenyl)(2-(p-tolyl)-1H-imidazol-4-yl)methanone] | 0.156 | – | 0.222 | – | 0.0079 to 0.11 | IC50 ([2]; PPC-1, Table 12, read-out: IC50 ± SEM, PPC-1 (converted)): 0.054 µM
COc1cc(C(=O)c2c[nH]c(-c3cc(OC)c(OC)c(OC)c3)n2)cc(OC)c1OC [12ea, (3,4,5-trimethoxyphenyl)(2-(3,4,5-trimethoxyphenyl)-1H-imidazol-4-yl)methanone] | > 10 | – | > 10 | 4.8 | – | IC50 ([5]; text on Tables 11-12, unit as printed, read-out: IC50 (average of all seven cell lines)): > 10 µM
COc1cc(C(=O)c2c[nH]c(-c3ccc(Cl)cc3)n2)cc(OC)c1OC [12fa, (2-(4-chlorophenyl)-1H-imidazol-4-yl)(3,4,5-trimethoxyphenyl)methanone] | 0.026 | 0.035 | 0.168 | 0.043 | 0.0079 to 0.11 | –
COc1cc(C(=O)c2c[nH]c(-c3ccc(N(C)C)cc3)n2)cc(OC)c1OC [12ga, (2-(4-(dimethylamino)phenyl)-1H-imidazol-4-yl)(3,4,5-trimethoxyphenyl)methanone] | 0.08 | 0.092 | 0.361 | 0.082 | 0.0079 to 0.11 | –
COc1ccc(-c2nc(C(=O)c3ccc(F)cc3)c[nH]2)cc1OC [12hb, (2-(3,4-dimethoxyphenyl)-1H-imidazol-4-yl)(4-fluorophenyl)methanone] | 1.4 | 10 | 4.21 | – | – | IC50 ([5]; Tables 11-13, read-out: IC50 (average of all seven cell lines)): 1 to 50 µM
COc1cc(C(=O)c2c[nH]c(-c3ccc(OCc4ccccc4)cc3)n2)cc(OC)c1OC [12ja, (2-(4-(benzyloxy)phenyl)-1H-imidazol-4-yl)(3,4,5-trimethoxyphenyl)methanone] | 5.5 | 10 | 10 | 5.2 | – | –
O=C(c1ccc(F)cc1)c1c[nH]c(-c2ccc(OCc3ccccc3)cc2)n1 [12jb, (2-(4-(benzyloxy)phenyl)-1H-imidazol-4-yl)(4-fluorophenyl)methanone] | 0.09 ± 0.012 | 0.079 ± 0.0004 | 0.117 ± 0.016 | 0.093 ± 0.008 | – | increase in activity compared with 12kb ([5]; 12jb vs para-hydroxy compound 12kb): 440 fold
